# Results as given in patent publication US8802678B2, “Carbonylated (aza) cyclohexanes as dopamine D3 receptor ligands” (Bioprojet, priority 2006, dated 2014).
row,Structure (SMILES),melting point [°C]
1,"O=C(N[C@H]1CC[C@H](CCN2CCN(c3cccc(C(F)(F)F)c3)CC2)CC1)C(F)F [Example 44, 2,2-Difluoro-N-(4-{2-[4-(3-trifluoromethylphenyl)piperazin-1-yl]ethyl}cyclohexyl)acetamide]",128
2,"COCCC(=O)N[C@H]1CC[C@H](CCN2CCN(c3cccc(C(F)(F)F)c3)CC2)CC1 [Example 47, 3-Methoxy-N-(4-{2-[4-(3-trifluoromethylphenyl)piperazin-1-yl]ethyl}cyclohexyl)propanamide]",125
3,"COCC(=O)N[C@H]1CC[C@H](CCN2CCN(c3ccc(F)cc3F)CC2)CC1 [Example 48, N-(4-{2-[4-(2,4-Difluorophenyl)-piperazin-1-yl]ethyl}cyclohexyl)-2-methoxyacetamide]",154
4,"COCC(=O)N[C@H]1CC[C@H](CCN2CCN(c3cccc(C)c3C#N)CC2)CC1 [Example 49, N-(4-{2-[4-(2-Cyano-3-methylphenyl)piperazin-1-yl]ethyl}cyclohexyl)-2-methoxyacetamide]",136
5,"O=C(N[C@H]1CC[C@H](CCN2CCN(c3cccc(C(F)(F)F)c3)CC2)CC1)C1CC=CC1 [Example 52, Cyclopent-3-enecarboxylic acid (4-{2-[4-(3-trifluoromethylphenyl)-piperazin-1-yl]ethyl}cyclohexyl)-amide]",183
6,"COCC(=O)N[C@H]1CC[C@H](CCN2CCC(c3cccc(C)c3C#N)CC2)CC1 [Example 55, N-(4-{2-[4-(2-Cyano-3-methylphenyl)piperidin-1-yl]ethyl}cyclohexyl)-2-methoxyacetamide]",141
7,"CCOCC(=O)N[C@H]1CC[C@H](CCN2CCN(c3ccccc3F)CC2)CC1 [Example 56, 2-Ethoxy-N-(4-{2-[4-(2-fluorophenyl)piperazin-1-yl]ethyl}cyclohexyl)acetamide]",117 to 118
8,"COCC(=O)N[C@H]1CC[C@H](CCN2CCN(c3ccccc3)CC2)CC1 [Example 60, 2-Methoxy-N-{4-[2-(4-phenylpiperazin-1-yl)ethyl]-cyclohexyl}acetamide]",136
9,"O=C(CC(F)(F)F)N[C@H]1CC[C@H](CCN2CCN(c3cccc(C(F)(F)F)c3)CC2)CC1 [Example 63, 3,3,3-Trifluoro-N-(4-{2-[4-(3-trifluoromethylphenyl)piperazin-1-yl]ethyl}cyclohexyl)propanamide]",156
10,"COCCCC(=O)N[C@H]1CC[C@H](CCN2CCN(c3cccc(C(F)(F)F)c3)CC2)CC1 [Example 64, 4-Methoxy-N-(4-{2-[4-(3-trifluoromethylphenyl)piperazin-1-yl]ethyl}cyclohexyl)butanamide]",149
11,"COCCCC(=O)N[C@H]1CC[C@H](CCN2CCN(c3ccccc3F)CC2)CC1 [Example 76, N-(4-{2-[4-(2-Fluorophenyl)-piperazin-1-yl]ethyl}cyclohexyl)-4-methoxybutanamide]",175
12,"COC(C)(C)C(=O)N[C@H]1CC[C@H](CCN2CCN(c3cccc(C(F)(F)F)c3)CC2)CC1 [Example 77, 2-Methoxy-2-methyl-N-(4-{2-[4-(3-trifluoromethylphenyl)-piperazin-1-yl]ethyl}cyclohexyl)-propanamide]",105
13,"CCOCC(=O)N[C@H]1CC[C@H](CCN2CCN(c3cccc(C#N)c3)CC2)CC1 [Example 78, N-(4-{2-[4-(3-Cyanophenyl)-piperazin-1-yl]ethyl}cyclohexyl)-2-ethoxyacetamide trans/cis 75/25]",90
14,"CSCC(=O)N[C@H]1CC[C@H](CCN2CCN(c3cccc(C(F)(F)F)c3)CC2)CC1 [Example 80, 2-Methylsulfanyl-N-(4-{2-[4-(3-trifluoromethylphenyl)piperazin-1-yl]ethyl}cyclohexyl)acetamide]",128

# Results, then the compound that gave them:
row,melting point [°C],Structure (SMILES)
1,175,"O=C(N[C@H]1CC[C@H](CCN2CCN(c3cccc(C(F)(F)F)c3)CC2)CC1)C1=CCCC1 [Example 45, Cyclopent-1-enecarboxylic acid (4-{2-[4-(3-trifluoromethyl-phenyl)piperazin-1-yl]ethyl}cyclohexyl)amide]"
2,143 to 144,"COCC(=O)N[C@H]1CC[C@H](CCN2CCN(c3ccccc3F)CC2)CC1 [Example 50, N-(4-{2-[4-(2-Fluorophenyl)-piperazin-1-yl]ethyl}cyclohexyl)-2-methoxyacetamide]"
3,175,"O=C(N[C@H]1CC[C@H](CCN2CCN(c3cccc(C(F)(F)F)c3)CC2)CC1)C1=CCCCC1 [Example 53, Cyclohex-1-enecarboxylic acid (4-{2-[4-(3-trifluoromethylphenyl)-piperazin-1-yl]ethyl}cyclohexyl)-amide]"
4,119 to 120,"O=C(N[C@H]1CC[C@H](CCN2CCN(c3ccccc3F)CC2)CC1)C1CCCO1 (stereo partly drawn) [Example 57, Tetrahydrofuran-2-carboxylic acid (4-{2-[4-(2-fluorophenyl)piperazin-1-yl]ethyl}cyclohexyl)amide]"
5,113,"COCC(=O)N[C@H]1CC[C@H](CCN2CCN(c3ccccc3C#N)CC2)CC1 [Example 58, N-(4-{2-[4-(2-Cyanophenyl)-piperazin-1-yl]ethyl}cyclohexyl)-2-methoxyacetamide]"
6,193,"O=C(N[C@H]1CC[C@H](CCN2CCN(c3ccccc3)CC2)CC1)C1=CCCCC1 [Example 66, Cyclohex-1-enecarboxylic acid {4-[2-(4-phenylpiperazin-1-yl)ethyl]cyclohexyl}amide trans/cis 90/10]"
7,209,"O=C(N[C@H]1CC[C@H](CCN2CCN(c3ccccc3F)CC2)CC1)C1=CCCCC1 [Example 67, Cyclohex-1-enecarboxylic acid (4-{2-[4-(2-fluorophenyl)-piperazin-1-yl]ethyl}cyclohexyl)-amide]"
8,210 to 211,"O=C(N[C@H]1CC[C@H](CCN2CCN(c3ccccc3F)CC2)CC1)C1=CCCC1 [Example 68, Cyclopent-1-enecarboxylic acid (4-{2-[4-(2-fluorophenyl)-piperazin-1-yl]ethyl}-cyclohexyl)amide]"
9,204,"O=C(N[C@H]1CC[C@H](CCN2CCN(c3ccccc3F)CC2)CC1)C1CC=CC1 [Example 70, Cyclopent-3-enecarboxylic acid (4-{2-[4-(2-fluorophenyl)-piperazin-1-yl]ethyl}-cyclohexyl)amide trans/cis 95/5]"
10,203,"O=C(N[C@H]1CC[C@H](CCN2CCN(c3ccc(F)cc3F)CC2)CC1)C1=CCCCC1 [Example 71, Cyclohex-1-enecarboxylic acid (4-{2-[4-(2,4-difluorophenyl)-piperazin-1-yl]ethyl}-cyclohexyl)amide]"
11,96,"CCOCC(=O)N[C@H]1CC[C@H](CCN2CCN(c3ccccc3C#N)CC2)CC1 [Example 73, N-(4-{2-[4-(2-Cyanophenyl)-piperazin-1-yl]ethyl}cyclohexyl)-2-ethoxyacetamide]"
12,167,"N#Cc1ccccc1N1CCN(CC[C@H]2CC[C@H](NC(=O)C3=CCCC3)CC2)CC1 [Example 74, Cyclopent-1-enecarboxylic acid (4-{2-[4-(2-cyanophenyl)-piperazin-1-yl]ethyl}cyclohexyl)-amide]"
13,179 to 180,"N#CCC(=O)N[C@H]1CC[C@H](CCN2CCN(c3ccccc3F)CC2)CC1 [Example 79, 2-Cyano-N-(4-{2-[4-(2-fluorophenyl)piperazin-1-yl]ethyl}cyclohexyl)acetamide]"
